In ChEMBL document CHEMBL3046591, “Design and synthesis of some azole derivatives as potential antimicrobial agents” (2012):
The source made the active and inactive calls. The calls are words filed in the database; no cut-off is given here.

Assays:
Type in all cases: functional
Candida albicans [1] = experiment: Antifungal activity against Candida albicans ATCC 60193 after 18 hr by agar well diffusion method
Enterococcus faecalis [2] = experiment: Antibacterial activity against Enterococcus faecalis ATCC 29212 after 18 hr by agar well diffusion method
Klebsiella aerogenes [3] = experiment: Antibacterial activity against Enterobacter aerogenes ATCC 13048 after 18 hr by agar well diffusion method
Klebsiella pneumoniae [4] = experiment: Antibacterial activity against Klebsiella pneumoniae ATCC 13883 after 18 hr by agar well diffusion method
Candida tropicalis [5] = experiment: Antifungal activity against Candida tropicalis ATCC 13803 after 18 hr by agar well diffusion method
Listeria monocytogenes [6] = experiment: Antibacterial activity against Listeria monocytogenes ATCC 43251 after 18 hr by agar well diffusion method
Bacillus cereus [7] = experiment: Antibacterial activity against Bacillus cereus 702 Roma after 18 hr by agar well diffusion method
[8] = tested on: Yersinia pseudotuberculosis; experiment: Antibacterial activity against Yersinia pseudotuberculosis ATCC 911 after 18 hr by agar well diffusion method
Staphylococcus aureus [9] = experiment: Antibacterial activity against Staphylococcus aureus ATCC 25923 after 18 hr by agar well diffusion method
Escherichia coli [10] = experiment: Antibacterial activity against Escherichia coli ATCC 25922 after 18 hr by agar well diffusion method
[11] = tested on: Mycolicibacterium smegmatis; experiment: Antibacterial activity against Mycobacterium smegmatis ATCC 607 after 18 hr by agar well diffusion method
Candida albicans [12] = experiment: Antifungal activity against Candida albicans ATCC 60193 at 5 mg after 18 hr by agar well diffusion method; conditions: ATCC 60193, 18 h, read-out: IZ
Candida tropicalis [13] = experiment: Antifungal activity against Candida tropicalis ATCC 13803 at 5 mg after 18 hr by agar well diffusion method; conditions: ATCC 13803, 18 h, read-out: IZ
Klebsiella aerogenes [14] = experiment: Antibacterial activity against Enterobacter aerogenes ATCC 13048 at 10 mg after 18 hr by agar well diffusion method; conditions: ATCC 13048, 18 h, read-out: IZ
Listeria monocytogenes [15] = experiment: Antibacterial activity against Listeria monocytogenes ATCC 43251 at 10 mg after 18 hr by agar well diffusion method; conditions: ATCC 43251, 18 h, read-out: IZ
Klebsiella pneumoniae [16] = experiment: Antibacterial activity against Klebsiella pneumoniae ATCC 13883 at 10 mg after 18 hr by agar well diffusion method; conditions: ATCC 13883, 18 h, read-out: IZ
Bacillus cereus [17] = experiment: Antibacterial activity against Bacillus cereus 702 Roma at 10 mg after 18 hr by agar well diffusion method; conditions: read-out: IZ
Enterococcus faecalis [18] = experiment: Antibacterial activity against Enterococcus faecalis ATCC 29212 at 10 mg after 18 hr by agar well diffusion method; conditions: ATCC 29212, 18 h, read-out: IZ
Staphylococcus aureus [19] = experiment: Antibacterial activity against Staphylococcus aureus ATCC 25923 at 10 mg after 18 hr by agar well diffusion method; conditions: ATCC 25923, 18 h, read-out: IZ
Escherichia coli [20] = experiment: Antibacterial activity against Escherichia coli ATCC 25922 at 10 mg after 18 hr by agar well diffusion method; conditions: ATCC 25922, 18 h, read-out: IZ
[21] = tested on: Yersinia pseudotuberculosis; experiment: Antibacterial activity against Yersinia pseudotuberculosis ATCC 911 at 10 mg after 18 hr by agar well diffusion method; conditions: ATCC 911, 18 h, read-out: IZ

Row | Structure (SMILES) | inhibition zone (IZ) (Candida albicans [1]) | inhibition zone (IZ) (Enterococcus faecalis [2]) | inhibition zone (IZ) (Klebsiella aerogenes [3]) | inhibition zone (IZ) (Klebsiella pneumoniae [4]) | inhibition zone (IZ) (Candida tropicalis [5]) | inhibition zone (IZ) (Listeria monocytogenes [6]) | inhibition zone (IZ) (Bacillus cereus [7]) | inhibition zone (IZ) [8] | inhibition zone (IZ) (Staphylococcus aureus [9]) | inhibition zone (IZ) (Escherichia coli [10]) | inhibition zone (IZ) [11] | further results
1 | O=c1n(S(=O)(=O)c2ccc(Br)cc2)nc(Cc2ccccc2)n1Cc1ccco1 | inactive | 8 mm | 8 mm | 15 mm | inactive | inactive | inactive | 8 mm | 10 mm | 10 mm | 10 mm | –
2 | CCOC(=O)Cn1nc(C)n(Cc2ccco2)c1=O | 9 mm | inactive | 10 mm | 10 mm | 7 mm | 8 mm | 6 mm | inactive | 8 mm | inactive | 15 mm | –
3 | Cc1n[nH]c(=O)n1CC1CCCO1 (centres undefined) | inactive | 10 mm | 8 mm | 8 mm | inactive | 7 mm | 15 mm | inactive | 20 mm | inactive | 15 mm | –
4 | Cc1nn(Cc2nnc(S)n2-c2ccccc2)c(=O)n1Cc1ccco1 | inactive | inactive | 6 mm | 10 mm | inactive | inactive | inactive | 10 mm | inactive | 6 mm | inactive | –
5 | OC(Cn1cncn1)(Cn1cncn1)c1ccc(F)cc1F [FLUCONAZOLE] | – | – | – | – | – | – | – | – | – | – | – | zone of inhibition at 5000 µg/disc (Candida albicans [12]): 25 mm; zone of inhibition at 5000 µg/disc (Candida tropicalis [13]): 25 mm
6 | Cc1nn(S(=O)(=O)c2ccc([N+](=O)[O-])cc2)c(=O)n1Cc1ccco1 | inactive | 6 mm | 15 mm | 20 mm | inactive | inactive | 15 mm | 12 mm | 15 mm | 15 mm | 40 mm | –
7 | CCCS(=O)(=O)n1nc(Cc2ccccc2)n(Cc2ccco2)c1=O | inactive | 8 mm | 8 mm | 10 mm | inactive | inactive | inactive | 10 mm | 15 mm | 8 mm | 15 mm | –
8 | O=c1n(S(=O)(=O)c2ccc(Cl)cc2)nc(Cc2ccccc2)n1Cc1ccco1 | inactive | 10 mm | 8 mm | 10 mm | inactive | inactive | inactive | 8 mm | 15 mm | 6 mm | 10 mm | –
9 | CC1(C)S[C@@H]2[C@H](NC(=O)[C@H](N)c3ccccc3)C(=O)N2[C@H]1C(=O)O [AMPICILLIN] | inactive | – | – | – | inactive | – | – | – | – | – | – | zone of inhibition at 10000 µg/disc (Klebsiella aerogenes [14]): 10 mm; zone of inhibition at 10000 µg/disc (Listeria monocytogenes [15]): 10 mm; zone of inhibition at 10000 µg/disc (Klebsiella pneumoniae [16]): 18 mm; zone of inhibition at 10000 µg/disc (Bacillus cereus [17]): 15 mm; zone of inhibition at 10000 µg/disc (Enterococcus faecalis [18]): 10 mm; zone of inhibition at 10000 µg/disc (Staphylococcus aureus [19]): 35 mm; zone of inhibition at 10000 µg/disc (Escherichia coli [20]): 10 mm; zone of inhibition at 10000 µg/disc [21]: > 18 mm
10 | O=c1[nH]nc(Cc2ccccc2)n1Cc1ccco1 | inactive | 10 mm | 10 mm | 10 mm | inactive | 8 mm | 8 mm | inactive | 20 mm | inactive | 10 mm | –
11 | Cc1nn(Cc2n[nH]c(=O)n2Cc2ccccc2)c(=O)n1Cc1ccco1 | inactive | inactive | 6 mm | 10 mm | inactive | inactive | 6 mm | 10 mm | inactive | 8 mm | inactive | –
12 | CN[C@@H]1[C@H](O[C@H]2[C@H](O[C@H]3[C@H](O)[C@@H](O)[C@H](N=C(N)N)[C@@H](O)[C@@H]3N=C(N)N)O[C@@H](C)[C@]2(O)C=O)O[C@@H](CO)[C@H](O)[C@H]1O [STREPTOMYCIN] | – | – | – | – | – | – | – | – | – | – | 35 mm | –
13 | Cc1nn(S(=O)(=O)c2ccccc2)c(=O)n1Cc1ccco1 | inactive | 25 mm | 15 mm | 20 mm | inactive | 20 mm | 15 mm | 12 mm | 35 mm | 20 mm | 20 mm | –
14 | Cc1n[nH]c(=O)n1Cc1ccco1 | inactive | inactive | 10 mm | 10 mm | inactive | 6 mm | 8 mm | inactive | 20 mm | inactive | 10 mm | –
